Experimental data from US8758816B2, “Compositions comprising azelastine and methods of use thereof” (priority 2004, dated 2014).

Test system: patients with seasonal allergic rhinitis (SAR)
Assay: MP 428 two-week randomized double-blind study: Total Nasal Symptom Score (TNSS), change from baseline
Type: in vivo, human
Parameters: key to Change from Baseline in AM TNSS, Mean / Change from Baseline in AM TNSS, LS Mean / Change from Baseline in AM TNSS, Median: TNSS sum of 4 symptoms each 0-3 (0=none, 3=severe); change from baseline
Protocol: A two-week, randomized, double-blind study, which evaluated the effects of the co-administration of ASTELIN® (azelastine hydrochloride (HCl)) and FLONASE® (fluticasone propionate) compared to either product alone in patients with seasonal allergic rhinitis (SAR) was conducted during the 2006 Texas mountain cedar season. After a 5-day placebo lead-in period, 151 patients with moderate-to-severe allergic rhinitis symptoms were randomized to either: (1) (49 total patients) ASTELIN® (azelastine hydrochloride (HCl)) plus placebo saline nasal spray 2 sprays per nostril, 15 minutes apart, twice daily (AM & PM); (2) (50 total patients) FLONASE® (fluticasone propionate) plus placebo saline nasal spray, 2 sprays per nostril, 15 minutes apart, once daily (AM) and two sessions of placebo saline nasal spray, 2 sprays per nostril, 15 minutes apart (PM); or (3) (52 total patients) the co-administration of ASTELIN® (azelastine hydrochloride (HCl)) 2 sprays per nostril plus FLONASE® (fluticasone propionate) 2 sprays per nostril (AM), 15 minutes apart, and ASTELIN® (azelastine hydrochloride (HCl)) 2 sprays per nostril plus placebo saline nasal spray, 15 minutes apart, (PM) for a 2-week double-blind treatment period.
The primary efficacy variable was the change from baseline in the Total Nasal Symptom Score (TNSS), which comprised sneezing, itchy nose, runny nose, and nasal congestion (individual symptoms scores were assigned a value between 0 and 3, where 0=no symptoms and 3=severe symptoms). This study was not statistically designed to assess the differences between ASTELIN® and FLONASE®.

[1] = Day 5, Intent-to-Treat Population
[2] = Day 6, Intent-to-Treat Population
[3] = Day 7, Intent-to-Treat Population
[4] = Day 8, Intent-to-Treat Population
[5] = Day 9, Intent-to-Treat Population

CCC(=O)O[C@]1(C(=O)SCF)[C@H](C)C[C@H]2[C@@H]3C[C@H](F)C4=CC(=O)C=C[C@]4(C)[C@@]3(F)[C@@H](O)C[C@@]21C [Fluticasone, fluticasone propionate]
Percent Change from Baseline in AM and PM Combined TNSS, Mean [1]: −26.89% | Percent Change from Baseline in AM and PM Combined TNSS, Median [1]: −22.77% | Percent Change from Baseline in PM TNSS, LS Mean [1]: −27.51% | Percent Change from Baseline in PM TNSS, Mean [1]: −27.06% | Percent Change from Baseline in PM TNSS, Median [1]: −22.22% | Change from Baseline in AM and PM Combined TNSS, LS Mean (Day 5, Intent-to-Treat Population, ANCOVA model): −5.20 | Change from Baseline in AM and PM Combined TNSS, LS Mean (Day 5, Per-Protocol Population): −5.23 | Change from Baseline in AM and PM Combined TNSS, Mean (Day 5, Per-Protocol Population): −5.23 | Change from Baseline in AM and PM Combined TNSS, Median (Day 5, Per-Protocol Population): −4.40 | Percent Change from Baseline in AM and PM Combined TNSS, LS Mean (Day 5, Per-Protocol Population): −27.42% | Percent Change from Baseline in AM and PM Combined TNSS, Mean (Day 5, Per-Protocol Population): −27.16% | Percent Change from Baseline in AM and PM Combined TNSS, Median (Day 5, Per-Protocol Population): −22.77% | Change from Baseline in AM TNSS, LS Mean [2]: −2.59 | Change from Baseline in AM TNSS, Mean [2]: −2.57 | Change from Baseline in AM TNSS, Median [2]: −2.20 | Change from Baseline in AM and PM Combined TNSS, Mean [2]: −5.10 | Change from Baseline in AM and PM Combined TNSS, Median [2]: −4.45 | Change from Baseline in PM TNSS, LS Mean [2]: −2.53 | Change from Baseline in PM TNSS, Mean [2]: −2.53 | Change from Baseline in PM TNSS, Median [2]: −2.00 | Percent Change from Baseline in AM TNSS, LS Mean [2]: −27.42% | Percent Change from Baseline in AM TNSS, Mean [2]: −27.12% | Percent Change from Baseline in AM TNSS, Median [2]: −23.81% | Percent Change from Baseline in AM and PM Combined TNSS, LS Mean [2]: −27.15% | Percent Change from Baseline in AM and PM Combined TNSS, Mean [2]: −26.90% | Percent Change from Baseline in AM and PM Combined TNSS, Median [2]: −22.20% | Percent Change from Baseline in PM TNSS, LS Mean [2]: −26.81% | Percent Change from Baseline in PM TNSS, Mean [2]: −26.62% | Percent Change from Baseline in PM TNSS, Median [2]: −22.22% | Change from Baseline in AM and PM Combined TNSS, LS Mean (Day 6, Intent-to-Treat Population, ANCOVA model): −5.12 | Change from Baseline in AM and PM Combined TNSS, LS Mean (Day 6, Per-Protocol Population): −5.11 | Change from Baseline in AM and PM Combined TNSS, Mean (Day 6, Per-Protocol Population): −5.12 | Change from Baseline in AM and PM Combined TNSS, Median (Day 6, Per-Protocol Population): −4.45 | Percent Change from Baseline in AM and PM Combined TNSS, LS Mean (Day 6, Per-Protocol Population): −27.15% | Percent Change from Baseline in AM and PM Combined TNSS, Mean (Day 6, Per-Protocol Population): −26.95% | Percent Change from Baseline in AM and PM Combined TNSS, Median (Day 6, Per-Protocol Population): −22.20% | Change from Baseline in AM TNSS, LS Mean [3]: −2.55 | Change from Baseline in AM TNSS, Mean [3]: −2.57 | Change from Baseline in AM TNSS, Median [3]: −2.00 | Change from Baseline in AM and PM Combined TNSS, Mean [3]: −5.02 | Change from Baseline in AM and PM Combined TNSS, Median [3]: −5.00 | Change from Baseline in PM TNSS, LS Mean [3]: −2.50 | Change from Baseline in PM TNSS, Mean [3]: −2.45 | Change from Baseline in PM TNSS, Median [3]: −2.00 | Percent Change from Baseline in AM TNSS, LS Mean [3]: −26.16% | Percent Change from Baseline in AM TNSS, Mean [3]: −26.29% | Percent Change from Baseline in AM TNSS, Median [3]: −22.22% | Percent Change from Baseline in AM and PM Combined TNSS, LS Mean [3]: −26.00% | Percent Change from Baseline in AM and PM Combined TNSS, Mean [3]: −25.75% | Percent Change from Baseline in AM and PM Combined TNSS, Median [3]: −23.81% | Percent Change from Baseline in PM TNSS, LS Mean [3]: −25.72% | Percent Change from Baseline in PM TNSS, Mean [3]: −25.18% | Percent Change from Baseline in PM TNSS, Median [3]: −20.45% | Change from Baseline in AM and PM Combined TNSS, LS Mean (Day 7, Intent-to-Treat Population, ANCOVA model): −5.06 | Change from Baseline in AM and PM Combined TNSS, LS Mean (Day 7, Per-Protocol Population): −4.98 | Change from Baseline in AM and PM Combined TNSS, Mean (Day 7, Per-Protocol Population): −4.99 | Change from Baseline in AM and PM Combined TNSS, Median (Day 7, Per-Protocol Population): −5.00 | Percent Change from Baseline in AM and PM Combined TNSS, LS Mean (Day 7, Per-Protocol Population): −25.63% | Percent Change from Baseline in AM and PM Combined TNSS, Mean (Day 7, Per-Protocol Population): −25.57% | Percent Change from Baseline in AM and PM Combined TNSS, Median (Day 7, Per-Protocol Population): −23.81% | Change from Baseline in AM TNSS, LS Mean [4]: −2.40 | Change from Baseline in AM TNSS, Mean [4]: −2.36 | Change from Baseline in AM TNSS, Median [4]: −1.67 | Change from Baseline in AM and PM Combined TNSS, Mean [4]: −4.55 | Change from Baseline in AM and PM Combined TNSS, Median [4]: −3.70 | Change from Baseline in PM TNSS, LS Mean [4]: −2.24 | Change from Baseline in PM TNSS, Mean [4]: −2.18 | Change from Baseline in PM TNSS, Median [4]: −2.00 | Percent Change from Baseline in AM TNSS, LS Mean [4]: −25.01% | Percent Change from Baseline in AM TNSS, Mean [4]: −24.67% | Percent Change from Baseline in AM TNSS, Median [4]: −19.23% | Percent Change from Baseline in AM and PM Combined TNSS, LS Mean [4]: −23.87% | Percent Change from Baseline in AM and PM Combined TNSS, Mean [4]: −23.38% | Percent Change from Baseline in AM and PM Combined TNSS, Median [4]: −20.97% | Percent Change from Baseline in PM TNSS, LS Mean [4]: −22.44% | Percent Change from Baseline in PM TNSS, Mean [4]: −21.91% | Percent Change from Baseline in PM TNSS, Median [4]: −21.95% | Change from Baseline in AM and PM Combined TNSS, LS Mean (Day 8, Intent-to-Treat Population, ANCOVA model): −4.64 | Change from Baseline in AM and PM Combined TNSS, LS Mean (Day 8, Per-Protocol Population): −4.61 | Change from Baseline in AM and PM Combined TNSS, Mean (Day 8, Per-Protocol Population): −4.59 | Change from Baseline in AM and PM Combined TNSS, Median (Day 8, Per-Protocol Population): −3.70 | Percent Change from Baseline in AM and PM Combined TNSS, LS Mean (Day 8, Per-Protocol Population): −23.68% | Percent Change from Baseline in AM and PM Combined TNSS, Mean (Day 8, Per-Protocol Population): −23.43% | Percent Change from Baseline in AM and PM Combined TNSS, Median (Day 8, Per-Protocol Population): −20.97% | Change from Baseline in AM TNSS, LS Mean [5]: −2.43 | Change from Baseline in AM TNSS, Mean [5]: −2.38
